This passage reports pest or weed control, inhibition of growth and melting point results from US20190345150A1, “MICROBIOCIDAL OXADIAZOLE DERIVATIVES” (SYNGENTA PARTICIPATIONS AG, priority 2016, published 2019).

Values joined by “and” are separate entries in the source; they are usually repeats but may differ in a detail not shown here. Equal entries are not always repeated. A value given as a limit tells only on which side of the number the result lay.

For orientation: melting point means the temperature, or range, at which the solid turns liquid.

The test system of data set [1] is Puccinia recondita f. Sp. Tritici. The experiment in a line: Puccinia recondita f. sp. tritici / wheat / leaf disc preventative (brown rust). Type of data set: in vivo. Conditions: foliar, 200 ppm in the applied formulation, wheat leaf segments cv. Kanzler, preventative (inoculated 1 day after application), compared to untreated control, read-out: disease control. Here is the method: Leaf disks or leaf segments of various plant species are cut from plants grown in a greenhouse. The cut leaf disks or segments are placed in multiwell plates (24-well format) onto water agar. The leaf disks are sprayed with a test solution before (preventative) or after (curative) inoculation. Compounds to be tested are prepared as DMSO solutions (max. 10 mg/ml) which are diluted to the appropriate concentration with 0.025% Tween20 just before spraying. The inoculated leaf disks or segments are incubated under defined conditions (temperature, relative humidity, light, etc.) according to the respective test system. A single evaluation of disease level is carried out 3 to 14 days after inoculation, depending on the pathosystem. Percent disease control relative to the untreated check leaf disks or segments is then calculated. Wheat leaf segments cv. Kanzler were placed on agar in multiwell plates (24-well format) and sprayed with the formulated test compound diluted in water. The leaf disks were inoculated with a spore suspension of the fungus 1 day after application. The inoculated leaf segments were incubated at 19° C. and 75% relative humidity (rh) under a light regime of 12 hours light/12 hours darkness in a climate cabinet and the activity of a compound was assessed as percent disease control compared to untreated when an appropriate level of disease damage appears in untreated check leaf segments (7 to 9 days after application).

In data set [2] the test system is Glomerella laqenarium (Colletotrichum laqenarium). The data set is described as follows: Glomerella lagenarium liquid culture / cucumber / preventative (anthracnose). Type of data set: cell-based. Particulars: 20 ppm in the applied formulation, liquid culture in PDB, growth inhibition measured photometrically 3 to 4 days after application, compared to untreated control, read-out: disease control. Here is the method: Mycelia fragments or conidia suspensions of a fungus prepared either freshly from liquid cultures of the fungus or from cryogenic storage, are directly mixed into nutrient broth. DMSO solutions of the test compound (max. 10 mg/ml) are diluted with 0.025% Tween20 by a factor of 50 and 10 μl of this solution is pipetted into a microtiter plate (96-well format). The nutrient broth containing the fungal spores/mycelia fragments is then added to give an end concentration of the tested compound. The test plates are incubated in the dark at 24° C. and 96% relative humidity. The inhibition of fungal growth is determined photometrically after 2 to 7 days, depending on the pathosystem, and percent antifungal activity relative to the untreated check is calculated. Conidia of the fungus from cryogenic storage are directly mixed into nutrient broth (PDB—potato dextrose broth). After placing a (DMSO) solution of test compound into a microtiter plate (96-well format), the nutrient broth containing the fungal spores is added. The test plates are incubated at 24° C. and the inhibition of growth is measured photometrically 3 to 4 days after application.

The subject of data set [3] is Phakopsora pachyrhizi. The experiment in a line: Phakopsora pachyrhizi / soybean / leaf disc preventative (Asian soybean rust). Type of data set: in vivo. Particulars: foliar, 200 ppm in the applied formulation, soybean leaf disks, preventative (inoculated 1 day after application), compared to untreated control, read-out: disease control. Here is the method:
Leaf disks or leaf segments of various plant species are cut from plants grown in a greenhouse. The cut leaf disks or segments are placed in multiwell plates (24-well format) onto water agar. The leaf disks are sprayed with a test solution before (preventative) or after (curative) inoculation. Compounds to be tested are prepared as DMSO solutions (max. 10 mg/ml) which are diluted to the appropriate concentration with 0.025% Tween20 just before spraying. The inoculated leaf disks or segments are incubated under defined conditions (temperature, relative humidity, light, etc.) according to the respective test system. A single evaluation of disease level is carried out 3 to 14 days after inoculation, depending on the pathosystem. Percent disease control relative to the untreated check leaf disks or segments is then calculated. Soybean leaf disks are placed on water agar in multiwell plates (24-well format) and sprayed with the formulated test compound diluted in water. One day after application leaf discs are inoculated by spraying a spore suspension on the lower leaf surface. After an incubation period in a climate cabinet of 24-36 hours in darkness at 20° C. and 75% rh leaf disc are kept at 20° C. with 12 h light/day and 75% rh. The activity of a compound is assessed as percent disease control compared to untreated when an appropriate level of disease damage appears in untreated check leaf disks (12 to 14 days after application).

The test system of data set [4] is Puccinia recondita f. Sp. Tritici. The data set is described as follows: Puccinia recondita f. sp. tritici / wheat / leaf disc curative (brown rust). Type of data set: in vivo. Particulars: foliar, 24 h, 200 ppm in the applied formulation, wheat leaf segments cv. Kanzler, curative (applied 1 day after inoculation), compared to untreated control, read-out: disease control. Here is the method: Leaf disks or leaf segments of various plant species are cut from plants grown in a greenhouse. The cut leaf disks or segments are placed in multiwell plates (24-well format) onto water agar. The leaf disks are sprayed with a test solution before (preventative) or after (curative) inoculation. Compounds to be tested are prepared as DMSO solutions (max. 10 mg/ml) which are diluted to the appropriate concentration with 0.025% Tween20 just before spraying. The inoculated leaf disks or segments are incubated under defined conditions (temperature, relative humidity, light, etc.) according to the respective test system. A single evaluation of disease level is carried out 3 to 14 days after inoculation, depending on the pathosystem. Percent disease control relative to the untreated check leaf disks or segments is then calculated. Wheat leaf segments cv. Kanzler are placed on agar in multiwell plates (24-well format). The leaf segments are then inoculated with a spore suspension of the fungus. Plates were stored in darkness at 19° C. and 75% relative humidity. The formulated test compound diluted in water was applied 1 day after inoculation. The leaf segments were incubated at 19° C. and 75% relative humidity under a light regime of 12 hours light/12 hours darkness in a climate cabinet and the activity of a compound was assessed as percent disease control compared to untreated when an appropriate level of disease damage appears in untreated check leaf segments (6 to 8 days after application).

`CC1(C)CON=C1OCc1ccc(-c2noc(C(F)(F)F)n2)cc1` [Compound 1.1, 3-[4-[(4,4-dimethyl-5H-isoxazol-3-yl)oxymethyl]phenyl]-5-(trifluoromethyl)-1,2,4-oxadiazole] registered a melting point of 50.2 to 51.8 °C. Also, the pest or weed control at 200 ppm in data set [1] is at least 80%. For the same molecule, in data set [2], the inhibition of growth at 20 ppm is at least 80%. Also, the pest or weed control at 200 ppm in data set [3] is at least 80%. Further, the pest or weed control at 200 ppm in data set [4] was at least 80%.
In the case of `FC(F)(F)c1nc(-c2ccc(COC3=NOCC3)cc2)no1` [Compound 1.2, 3-[4-(4,5-dihydroisoxazol-3-yloxymethyl)phenyl]-5-(trifluoromethyl)-1,2,4-oxadiazole], the melting point is 97 to 101 °C and 97 to 100.9 °C. Also, in data set [1], the pest or weed control at 200 ppm was at least 80%. Moreover, the inhibition of growth at 20 ppm in data set [2] is at least 80%. In addition, the pest or weed control at 200 ppm in data set [3] is at least 80%. Moreover, in data set [4], the pest or weed control at 200 ppm was at least 80%.
Turning to `CC1(C)CC(OCc2ccc(-c3noc(C(F)(F)F)n3)cc2)=NO1` [Compound 1.3, 3-[4-[(5,5-dimethyl-4H-isoxazol-3-yl)oxymethyl]phenyl]-5-(trifluoromethyl)-1,2,4-oxadiazole], the melting point was 107.9 to 108.6 °C. In addition, in data set [2], the inhibition of growth at 20 ppm is at least 80%. In addition, in data set [3], the pest or weed control at 200 ppm is at least 80%.
`FC(F)(F)c1nc(-c2ccc(COc3ccon3)cc2)no1` [Compound 1.4, 3-[4-(isoxazol-3-yloxymethyl)phenyl]-5-(trifluoromethyl)-1,2,4-oxadiazole] registered a melting point of 61.8 to 64.4 °C. Further, in data set [1], the pest or weed control at 200 ppm was at least 80%. The inhibition of growth at 20 ppm in data set [2] was at least 80%. Also, the pest or weed control at 200 ppm in data set [3] was at least 80%. For the same molecule, the pest or weed control at 200 ppm in data set [4] was at least 80%.
Molecule `Cc1cc(OCc2ccc(-c3noc(C(F)(F)F)n3)cc2)no1` [Compound 1.5, 3-[4-[(5-methylisoxazol-3-yl)oxymethyl]phenyl]-5-(trifluoromethyl)-1,2,4-oxadiazole] had a melting point of 81.2 to 82.6 °C. Also, the pest or weed control at 200 ppm in data set [1] is at least 80%. Also, the inhibition of growth at 20 ppm in data set [2] was at least 80%. The pest or weed control at 200 ppm in data set [3] was at least 80%. Moreover, the pest or weed control at 200 ppm in data set [4] was at least 80%.
Molecule `Cn1nnnc1OCc1ccc(-c2noc(C(F)(F)F)n2)cc1` [Compound 1.8, 3-[4-[(1-methyltetrazol-5-yl)oxymethyl]phenyl]-5-(trifluoromethyl)-1,2,4-oxadiazole] displayed a melting point of 113.3 to 114.2 °C. The pest or weed control at 200 ppm in data set [1] is at least 80%. In addition, in data set [2], the inhibition of growth at 20 ppm was at least 80%. Moreover, the pest or weed control at 200 ppm in data set [3] is at least 80%. Further, the pest or weed control at 200 ppm in data set [4] was at least 80%.
`Fc1ccccc1OCc1ccc(-c2noc(C(F)(F)F)n2)cc1` [Compound 1.11, 3-[4-[(2-fluorophenoxy)methyl]phenyl]-5-(trifluoromethyl)-1,2,4-oxadiazole] gave a melting point of 108 to 110 °C. Besides, in data set [1], the pest or weed control at 200 ppm was at least 80%. For the same molecule, the inhibition of growth at 20 ppm in data set [2] is at least 80%. Besides, in data set [3], the pest or weed control at 200 ppm is at least 80%. Further, the pest or weed control at 200 ppm in data set [4] was at least 80%.
For `Fc1cc(COC2=NOCC2)ccc1-c1noc(C(F)(F)F)n1` [Compound 1.13, 3-[4-(4,5-dihydroisoxazol-3-yloxymethyl)-2-fluoro-phenyl]-5-(trifluoromethyl)-1,2,4-oxadiazole], the pest or weed control at 200 ppm in data set [1], in data set [3] and in data set [4] was at least 80% each time. For the same molecule, the inhibition of growth at 20 ppm in data set [2] is at least 80%.
The molecule `Fc1ccc(OCc2ccc(-c3noc(C(F)(F)F)n3)cc2)nc1` [Compound 1.16, 3-[4-[(5-fluoro-2-pyridyl)oxymethyl]phenyl]-5-(trifluoromethyl)-1,2,4-oxadiazole] displayed a melting point of 84 to 86 °C. Further, the pest or weed control at 200 ppm in data set [3] is at least 80%.
The molecule `Cn1ccc(OCc2ccc(-c3noc(C(F)(F)F)n3)cc2)n1` [Compound 1.17, 3-[4-[(1-methylpyrazol-3-yl)oxymethyl]phenyl]-5-(trifluoromethyl)-1,2,4-oxadiazole] registered a melting point of 84.9 to 87.8 °C. Moreover, the pest or weed control at 200 ppm in data set [1] was at least 80%. Moreover, in data set [2], the inhibition of growth at 20 ppm was at least 80%. For the same molecule, the pest or weed control at 200 ppm in data set [3] was at least 80%. In data set [4], the pest or weed control at 200 ppm was at least 80%.
In turn, `CC(=O)n1ccc(OCc2ccc(-c3noc(C(F)(F)F)n3)cc2)n1` [Compound 1.18, 1-[3-[[4-[5-(trifluoromethyl)-1,2,4-oxadiazol-3-yl]phenyl]methoxy]pyrazol-1-yl]ethanone] came in with a melting point of 86.1 to 87.3 °C. Further, the pest or weed control at 200 ppm in data set [1] is at least 80%. Further, the inhibition of growth at 20 ppm in data set [2] was at least 80%. In data set [3], the pest or weed control at 200 ppm was at least 80%. In data set [4], the pest or weed control at 200 ppm was at least 80%.
Turning to `Cc1cc(OCc2ccc(-c3noc(C(F)(F)F)n3)cc2)n[nH]1` [Compound 1.19, 3-[4-[(5-methyl-1H-pyrazol-3-yl)oxymethyl]phenyl]-5-(trifluoromethyl)-1,2,4-oxadiazole], the melting point lay in the range of 137.4 to 141.8 °C. The pest or weed control at 200 ppm in data set [1] is at least 80%. Besides, the inhibition of growth at 20 ppm in data set [2] is at least 80%. Moreover, in data set [3], the pest or weed control at 200 ppm was at least 80%. In addition, the pest or weed control at 200 ppm in data set [4] is at least 80%.
`CON=COCc1ccc(-c2noc(C(F)(F)F)n2)cc1` [Compound 1.23, [4-[5-(trifluoromethyl)-1,2,4-oxadiazol-3-yl]phenyl]methyl N-methoxymethanimidate]: the pest or weed control at 200 ppm in data set [1], in data set [3] and in data set [4] was at least 80% in each case. Besides, the inhibition of growth at 20 ppm in data set [2] was at least 80%.
In the case of `O=C(NC1CC1)OCc1ccc(-c2noc(C(F)(F)F)n2)cc1` [Compound 3.2, [4-[5-(trifluoromethyl)-1,2,4-oxadiazol-3-yl]phenyl]methyl N-cyclopropylcarbamate], the pest or weed control at 200 ppm in data set [1], in data set [3] and in data set [4] was at least 80% each time. The inhibition of growth at 20 ppm in data set [2] was at least 80%.
For `C/C(=N/OCc1ccc(-c2noc(C(F)(F)F)n2)cc1)N1CCOCC1` [Compound 4.3, (Z)-1-morpholino-N-[[4-[5-(trifluoromethyl)-1,2,4-oxadiazol-3-yl]phenyl]methoxy]ethanimine], the pest or weed control at 200 ppm in data set [1] and in data set [3] was at least 80% throughout. Also, in data set [2], the inhibition of growth at 20 ppm was at least 80%.
